Data taken from patent US5158939A, “Method of stimulating the immune systems of animals and compositions useful therefor” (priority 1990, dated 1992).
Entries after “also recorded” stand apart in the source; their conditions may differ. Where two headings read alike, the source gives them in different places.

Columns and labels:
[1] = tested on: RAW 264.7 murine macrophage cells; test: Cachectin/TNF production by RAW 264.7 cells, immunoblot; format: cell-based
Procedure: For the […] to activate the RAW 264.7 murine macrophage cell line, we chose the toxic deep rough chemotype LPS (ReLPS) from Escherichia coli D31m4, which was recently purified and characterized^15. […] This is a clear example of a lipid A derivative showing strong antagonism against a toxic agonist in the induction of cachectin.
The immunoblot method was used to quantitate the cachectin/TNF production by RAW 264.7 murine macrophage cells. RAW 264.7 cells^4,16 were seeded in 24-well plates (Nunc) at a density of 3×10^5 cells/well in Dulbecco's modified Eagle's medium supplemented with 5 percent fetal calf serum. After 12 hours, cell monolayers were washed twice with 1 ml of serum-free medium and then left covered with […] of the same. An aqueous suspension of DPLA and/or ReLPS was then added to a final concentration indicated. Cells were incubated for 12 hours, after which the medium was removed for measurement of TNF by immunoblotting. One hundred μl of medium was mixed with 100 μl of SDS-containing sample buffer, heated to 100° C. for 5 minutes, and subjected to electrophoresis in a 10-15% polyacrylamide gradient gel. Proteins were then transferred to nitrocellulose electrophoretically, and TNF was visualized through the use of a rabbit anti-mouse TNF polyclonal serum^3,5 applied at a 1:100 dilution, followed by alkaline phosphatase-conjugated goat anti-rabbit IgG (Bio-Rad).
Bands were visualized using nitroblue tetrazolium. Approximately 0.1 ng of cachectin/TNF may be detected as a band. The antiserum also recognized the processing intermediates (prohormones) on Western blot.

[2] = tested on: RAW 264.7 cells; test: TNF production by RAW 264.7 cells, dilution for 50% killing of indicator cell line L929; format: cell-based, murine; conditions: for Dilution to get 50% killing: Table 1
Procedure: The TNF unit is derived by determining how far one can dilute the supernatant of the culture to achieve 50% killing of an indicator cell line.
TNF unit was derived by determining dilution of culture supernatant that kills 50 percent of the indicator cell line.
DPLA was added 2 hours before exposing culture to ReLPS. The ReLPS and DPLA were complexed with bovine serum albumin.^1

[3] = tested on: peritoneal macrophages; test: Induction of IL-1 in thioglycollate-elicited peritoneal macrophages (comitogenic thymocyte assay); format: cell-based, BDF1 mice; conditions: for IL-1 induction, CPM: SD in parentheses; for induction of IL-1 release: DPLA alone 0.1, 1.0, 10 μg/ml
Procedure: 1L-1 assay--Peritoneal exudate cells were harvested from BDF1 mice 48 h after an intraperitoneal injection of thioglycollate. […] Macrophages were either pretreated with R. sphaeroides DPLA (0.1-10 μg/ml) followed by the addition of toxic Re LPS (0.1 μg) after 2 h, or immediately stimulated with Re LPS (0.01-1.00 μg/ml). Control wells were treated with 10 μl of media containing 0.5% triethylamine. Cultures were incubated at 37° C. in the presence of 5% CO2 for 18 h at which time the supernatants were collected and frozen at -20° C. until assayed. 1L-1 activity was determined by the comitogenic thymocyte assay.^25
Peritoneal exudate cells were harvested from BDF1 mice 48 h after an intraperitoneal injection of thioglycollate as described previously (Lederer and Czuprynki). Macrophages were either pretreated with R. sphaeroides DPLA (0.1-10 μg/ml) followed by addition of toxic ReLPS (0.1 μg), or immediately stimulated with ReLPS (0.01-1.00 μg/ml). Control wells were treated with 10 μl of media with 0.5% triethylamine. Cultures were incubated at 37° C. in the presence of 5% CO2 for 18 h at which time the supernatants were collected and frozen at -20° C. until assayed.
ReLPS was added to the culture 2 h after adding the R. sphaeroides DPLA. […] Standard deviation in CPM are given in parentheses.

[4] = tested on: 70Z/3 cells; format: cell-based
Procedure: ^1 Corrected for background of 5% fluorescence.
^2 The DPLA stimulated 7OZ/3 preB cells to the extent of from 2.5-6.0
fluorescence at concentrations of 1.0-10 mg/ml. In the competitive
inhibition experiment, the cells were first exposed to DPLA for 2 hours
before adding the ReLPS. In all experiments, the ReLPS and DPLA were
complexed with bovine serum albumin.
In this experiment, 0.1 μg/ml of ReLPS and 3.0 μg/ml of DPLA were
^1 The time of pre/post treatment of 7OZ/3 cells with DPLA relative t
the time of addition of ReLPS are indicated.

[5] = tested on: chick embryo; test: Chick embryo lethality test; format: in vivo
Procedure: It was characterized as the tetramethyl derivative by plasma desorption mass spectrometry. It is nontoxic based on the chick embryo lethality test (CELD50 >20 μg), and its structure is shown in Formula II.

[6] = tested on: serum TNF; test: Serum TNF rise after E. coli LPS in mice; format: in vivo; conditions: RsDPLA 100 μg and 1 mg, 60 and 90 min before E. coli LPS 1 μg and 5 μg i.p.
[7] = tested on: mice; test: LD50 in galactosamine-sensitized mice; format: in vivo
Procedure: Although the diphospholipids from E. coli and Salmonella strains are highly toxic, DPLA having the structure of the diphosphoryllipid A from R. sphaeroides is not. The LD50 of DPLA in galactosamine--sensitized mice was greater than 20 mg/kg.

[8] = Toxicity / endotoxic activity (general statements); conditions: in words
[9] = tested on: RAW 264.7 murine macrophage cells; conditions: as reported; cited from earlier work

CCCCCCC=CCCCCCC(=O)OC(CCCCCCCCCCC)CC(=O)NC1C(OCC2OC(OP(=O)(O)O)C(NC(=O)CC(=O)CCCCCCCCCCC)C(OC(=O)CC(O)CCCCCCC)C2O)OC(CO)C(OP(=O)(O)O)C1OC(=O)CC(O)CCCCCCC (stereo not shown) [DPLA]
induction of cachectin (immunoblot) ([1]; DPLA 1-1000 ng/ml): not able to induce the formation of cachectin
inhibition of ReLPS-induced cachectin (immunoblot) ([1]; DPLA 10^3 ng/ml + ReLPS 10 ng/ml (ReLPS:DPLA 1:100)): definite inhibition
induction of cachectin (immunoblot) ([1]; DPLA 10^4 ng/ml): only slight induction
blocking of ReLPS-induced cachectin/TNF (immunoblot) ([1]; in words): blocks the induction of cachectin; also recorded: blocking of induction
DPLA concentration at which inhibition was probably maximal ([1]; with ReLPS 10 ng/ml): < 10^4 ng/ml
induction of TNF ([2]; DPLA alone 10^4 ng/ml): measurable but low level in the induction of TNF
inhibition at 0.01 µg/mL ([2]; Mus musculus, RAW264.7, Table 3, DPLA 10 ng/ml, ReLPS 1.0 ng/ml (ReLPS:DPLA 1:10), read-out: Inhibition of induction of TNF by ReLPS): 55%
inhibition at 0.1 µg/mL ([2]; Mus musculus, RAW264.7, Table 3, DPLA 100 ng/ml, ReLPS 1.0 ng/ml (1:100), read-out: Inhibition of induction of TNF by ReLPS): 95%
inhibition at 10 µg/mL ([2]; Mus musculus, RAW264.7, Table 3, DPLA 10000 ng/ml, ReLPS 1.0 ng/ml (1:10^4), read-out: Inhibition of induction of TNF by ReLPS): 81%
induction of TNF ([2]; RAW 264.7 cells, indicator cell line L929): not effective in the induction of TNF; also recorded: lack of induction
blocking of TNF induction by ReLPS ([2]; RAW 264.7 cells, in words): effectively antagonize the induction of TNF by toxic ReLPS in a dose-dependent manner; also recorded: block the induction of cachectin (TNF); also recorded: blocking of induction
Dilution to get 50% killing ([2]; DPLA 10 ng/ml 2 h before ReLPS 1.0 ng/ml): 829
Dilution to get 50% killing ([2]; DPLA 100 ng/ml 2 h before ReLPS 1.0 ng/ml): 112
Dilution to get 50% killing ([2]; DPLA 1000 ng/ml 2 h before ReLPS 1.0 ng/ml): 86
Dilution to get 50% killing ([2]; DPLA 10,000 ng/ml 2 h before ReLPS 1.0 ng/ml): 234
Dilution to get 50% killing ([2]; DPLA alone 10 ng/ml): 0
Dilution to get 50% killing ([2]; DPLA alone 100 ng/ml): 0
Dilution to get 50% killing ([2]; DPLA alone 1000 ng/ml): 71
Dilution to get 50% killing ([2]; DPLA alone 10,000 ng/ml): 346
Dilution for 50% killing ([2]; Table 3, DPLA 10 ng/ml 2 h before ReLPS 1.0 ng/ml): 2287
Dilution for 50% killing ([2]; Table 3, DPLA 100 ng/ml 2 h before ReLPS 1.0 ng/ml): 269
Dilution for 50% killing ([2]; Table 3, DPLA 1000 ng/ml 2 h before ReLPS 1.0 ng/ml): 201
Dilution for 50% killing ([2]; Table 3, DPLA 10000 ng/ml 2 h before ReLPS 1.0 ng/ml): 973
Dilution for 50% killing ([2]; Table 3, DPLA alone 10 ng/ml, complexed with BSA): < 10
Dilution for 50% killing ([2]; Table 3, DPLA alone 100 ng/ml, complexed with BSA): 19
Dilution for 50% killing ([2]; Table 3, DPLA alone 1000 ng/ml, complexed with BSA): 201
Dilution for 50% killing ([2]; Table 3, DPLA alone 10000 ng/ml, complexed with BSA): 764
IL-1 induction, CPM ([3]; DPLA 0.1 μg/ml 2 h before ReLPS 0.1 μg/ml): 51,999 (4860) CPM
IL-1 induction, CPM - Blank ([3]; DPLA 0.1 μg/ml + ReLPS 0.1 μg/ml): 44,211 CPM
IL-1 induction, CPM ([3]; DPLA 1.0 μg/ml 2 h before ReLPS 0.1 μg/ml): 28,276 (4860) CPM
IL-1 induction, CPM - Blank ([3]; DPLA 1.0 μg/ml + ReLPS 0.1 μg/ml): 20,491 CPM
IL-1 induction, CPM ([3]; DPLA 10.0 μg/ml 2 h before ReLPS 0.1 μg/ml): 5,892 (886) CPM
IL-1 induction, CPM - Blank ([3]; DPLA 10.0 μg/ml + ReLPS 0.1 μg/ml): 0 CPM
% Inhibition of IL-1 induction by ReLPS ([3]; DPLA 10.0 μg/ml, ReLPS 0.1 μg/ml (1:100)): total
IL-1 induction, CPM - Blank ([3]; DPLA alone 0.1 μg/ml): 0 CPM
IL-1 induction, CPM ([3]; DPLA alone 0.1 μg/ml): 3,511 (616) CPM
IL-1 induction, CPM - Blank ([3]; DPLA alone 1.0 μg/ml): 0 CPM
IL-1 induction, CPM ([3]; DPLA alone 1.0 μg/ml): 2,911 (383) CPM
IL-1 induction, CPM - Blank ([3]; DPLA alone 10.0 μg/ml): 0 CPM
IL-1 induction, CPM ([3]; DPLA alone 10.0 μg/ml): 3,764 (785) CPM
induction of IL-1 release ([3]; in words): unable to induce interleukin-1 release; also recorded: no IL-1/releasing activity
induction of IL-1 release ([3]; in words, listed as pentaacyl DPLA): unable to induce 1L-1
blocking of ReLPS-induced IL-1 release ([3]; in words): blocked this activity by toxic deep rough chemotype LPS; also recorded: antogonize the induction of IL-1 release by toxic Re LPS; also recorded: blocked the release of IL-1
Activation (% fluorescence) ([4]; Table 4, DPLA 0.1 μg/ml 2 h before ReLPS 0.1 μg/ml): 52 % fluorescence
Activation (% fluorescence) ([4]; Table 4, DPLA 0.3 μg/ml 2 h before ReLPS 0.1 μg/ml): 45 % fluorescence
Activation (% fluorescence) ([4]; Table 4, DPLA 1.0 μg/ml 2 h before ReLPS 0.1 μg/ml): 26.5 % fluorescence
Activation (% fluorescence) ([4]; Table 4, DPLA 3.0 μg/ml 2 h before ReLPS 0.1 μg/ml): 14 % fluorescence
Activation (% fluorescence) ([4]; Table 5, DPLA 1.0 μg/ml, ReLPS 0): 3.5 % fluorescence
Activation (% fluorescence) ([4]; Table 5, DPLA 1.0 μg/ml, ReLPS 0.1 μg/ml): 28.5 % fluorescence
Activation (% fluorescence) ([4]; Table 5, DPLA 1.0 μg/ml, ReLPS 0.3 μg/ml): 48.5 % fluorescence
Activation (% fluorescence) ([4]; Table 5, DPLA 1.0 μg/ml, ReLPS 1.0 μg/ml): 57.5 % fluorescence
Activation (% fluorescence) ([4]; Table 5, DPLA 1.0 μg/ml, ReLPS 10 μg/ml): 75.5 % fluorescence
Activation (% fluorescence) ([4]; Table 5, DPLA 3.0 μg/ml, ReLPS 0): 2.56 % fluorescence
Activation (% fluorescence) ([4]; Table 5, DPLA 3.0 μg/ml, ReLPS 0.1 μg/ml): 13.5 % fluorescence
Activation (% fluorescence) ([4]; Table 5, DPLA 3.0 μg/ml, ReLPS 0.3 μg/ml): 30 % fluorescence
Activation (% fluorescence) ([4]; Table 5, DPLA 3.0 μg/ml, ReLPS 1.0 μg/ml): 55 % fluorescence
Activation (% fluorescence) ([4]; Table 5, DPLA 3.0 μg/ml, ReLPS 10 μg/ml): 77 % fluorescence
Activation (% fluorescence) ([4]; Table 5, DPLA 10 μg/ml, ReLPS 0.1 μg/ml): 4.5 % fluorescence
Activation (% fluorescence) ([4]; Table 5, DPLA 10 μg/ml, ReLPS 0.3 μg/ml): 11 % fluorescence
Activation (% fluorescence) ([4]; Table 5, DPLA 10 μg/ml, ReLPS 1.0 μg/ml): 25 % fluorescence
Activation (% fluorescence) ([4]; Table 5, DPLA 10 μg/ml, ReLPS 10 μg/ml): 69 % fluorescence
Activation (% fluorescence) ([4]; Table 6, DPLA 3.0 μg/ml added at 0 h relative to ReLPS 0.1 μg/ml): 10.5 % fluorescence
Activation (% fluorescence) ([4]; Table 6, DPLA 3.0 μg/ml added at 2 h relative to ReLPS 0.1 μg/ml): 20 % fluorescence
Activation (% fluorescence) ([4]; Table 6, DPLA 3.0 μg/ml added at 4 h relative to ReLPS 0.1 μg/ml): 24 % fluorescence
Activation (% fluorescence) ([4]; Table 6, DPLA 3.0 μg/ml added at 6 h relative to ReLPS 0.1 μg/ml): 24.5 % fluorescence
Activation (% fluorescence) ([4]; Table 6, DPLA 3.0 μg/ml added at 8 h relative to ReLPS 0.1 μg/ml): 9.5 % fluorescence
Activation (% fluorescence) ([4]; Table 6, DPLA 3.0 μg/ml added at 16 h relative to ReLPS 0.1 μg/ml): 44 % fluorescence
Activation (% fluorescence) ([4]; Table 6, DPLA 3.0 μg/ml added at 20 h relative to ReLPS 0.1 μg/ml): 54 % fluorescence
Activation (% fluorescence) ([4]; Table 6, DPLA 3.0 μg/ml added at 24 h relative to ReLPS 0.1 μg/ml): 55.5 % fluorescence
Activation (% fluorescence) ([4]; Table 6, DPLA 3.0 μg/ml added at -2 h relative to ReLPS 0.1 μg/ml): 11 % fluorescence
antagonism of LPS-induced activation of 70Z/3 pre-B cells ([4]; in words): effective antagonist in the LPS-induced activation of 70Z/3 pre-B cells; also recorded: block LPS-inducted immunoglobulin synthesis by 70Z/3 pre-B cells
CELD50 [5]: > 20 µg
rise in serum TNF [6]: blocked a rise in serum TNF
LD50 [7]: greater than 20 mg/kg
endotoxic activity [8]: nontoxic
endotoxic activity ([8]; listed as R. sphaeroides DPLA): not endotoxic
endotoxic activity ([8]; listed as pentaacyl DPLA): lacks endotoxic activity; also recorded: no endotoxic activity
blocking of LPS-induced TNF [9]: competes successfully with toxic LPS to block the induction of TNF in a dose-dependent manner
induction of TNF [9]: fails to induce the synthesis and release of TNF by macrophages
